According to patent US20140107109A1, “AMINO-DIHYDROTHIAZINE AND AMINO-DIOXIDO DIHYDROTHIAZINE COMPOUNDS AS BETA-SECRETASE ANTAGONISTS AND METHODS OF USE” (Amgen Inc., priority 2012, published 2014):
Like-named read-outs stand apart in the source and are kept apart here.

Experiments:
[1] = test system: Aβ40 in conditioned medium of cells stably expressing Amyloid Precursor Protein (APP); test: In vitro BACE cell-based assay (HEK cell assay), Aβ40 sandwich ELISA; details: Homo sapiens, HEK293
Outline: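 APP-stably expressing cells (40K/well, grown 24 h in DMEM/10% FBS) were treated 24 h with compounds in 10-point dose response starting at 100 μM or 10 μM, 0.1% DMSO final. Secreted Aβ40 was measured by sandwich ELISA (pAb40 capture, biotinylated 6E10 detection, europium time-resolved fluorescence); IC50 from percent inhibition.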

[2] = target: Beta Secretase enzyme (BACE1) (Homo sapiens, UniProt P56817); test: In vitro enzymatic BACE FRET assay; type: biochemical; details: read-out: BACE1 FRET assay IC50
Outline: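 BACE1 cleavage of a 50 nM fluorophore/quencher peptide FRET substrate ran for one hour in 0.05 M acetate pH 4.2, 10% DMSO, 100 uM genapol. Tris buffer raised pH to neutrality to stop the reaction before fluorescence was read (excitation 488 nm, […]).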

Cathepsin D (Cat D) = target: T1, Cathepsin D (Cat D) (Homo sapiens, UniProt P07339); test: In vitro enzymatic Cathepsin D (Cat D) FRET assay; type: biochemical; details: read-out: CatD IC50
T1 construct: Recombinant Cat D was expressed in CHO cells; made in house; host or cells: CHO cells
Outline: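 Recombinant Cat D expressed in CHO cells, used at 9 nM and pre-incubated one hour with serially diluted inhibitor in DMSO. Peptide substrate carries a fluorophore and quencher flanking the cleavage site; reaction stopped with Tris buffer raising pH to neutrality, then fluorescence read.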

T1 sequence (P07339 65-412, species assumed): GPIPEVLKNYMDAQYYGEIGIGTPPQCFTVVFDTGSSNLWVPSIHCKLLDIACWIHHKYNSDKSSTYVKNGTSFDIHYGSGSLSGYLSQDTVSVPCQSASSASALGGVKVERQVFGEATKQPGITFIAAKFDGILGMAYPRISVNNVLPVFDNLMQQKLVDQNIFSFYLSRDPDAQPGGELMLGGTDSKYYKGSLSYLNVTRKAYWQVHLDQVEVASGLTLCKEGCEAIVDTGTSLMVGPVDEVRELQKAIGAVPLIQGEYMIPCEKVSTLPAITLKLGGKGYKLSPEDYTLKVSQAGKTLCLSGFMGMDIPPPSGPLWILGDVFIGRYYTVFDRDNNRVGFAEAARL
Sequence of Beta Secretase enzyme (BACE1) (P56817 46-501): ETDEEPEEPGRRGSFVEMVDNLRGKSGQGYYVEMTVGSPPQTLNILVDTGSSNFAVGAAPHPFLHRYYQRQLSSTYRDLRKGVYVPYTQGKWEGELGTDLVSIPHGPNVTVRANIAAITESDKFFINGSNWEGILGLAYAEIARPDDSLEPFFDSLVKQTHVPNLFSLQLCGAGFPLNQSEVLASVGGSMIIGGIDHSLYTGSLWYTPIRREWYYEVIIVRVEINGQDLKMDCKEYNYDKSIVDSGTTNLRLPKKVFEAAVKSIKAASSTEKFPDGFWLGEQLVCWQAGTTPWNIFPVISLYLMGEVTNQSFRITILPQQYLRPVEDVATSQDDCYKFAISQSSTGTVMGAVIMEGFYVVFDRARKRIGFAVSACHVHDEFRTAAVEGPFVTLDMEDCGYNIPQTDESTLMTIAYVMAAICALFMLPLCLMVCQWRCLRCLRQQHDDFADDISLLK

IC50 [2] [nM]	IC50 (Cathepsin D (Cat D)) [nM]	IC50 ([1]; average IC50, cell assay) [nM]	IC50 ([2]; average IC50, enzyme assay) [nM]	SMILES	also measured
6	118000	–	–	C[C@@]1(c2cc(NC(=O)c3ccc(Cl)cn3)ccc2F)CS(=O)(=O)CC(N)=N1 [Example 29, N-(3-((3R)-5-amino-3-methyl-1,1-dioxido-3,6-dihydro-2H-1,4-thiazin-3-yl)-4-fluorophenyl)-5-chloro-2-pyridinecarboxamide]	IC50 ([1]; Aβ40, 24 h incubation): 10.8 nM
–	175000	78.2	2.68	COc1cnc2c(Nc3ccc(F)c([C@]4(C)CS(=O)(=O)[C@@](C)(F)C(N)=N4)c3)ncnc2c1 [Example 177, (3R,6R)-5-Amino-6-fluoro-3-(2-fluoro-5-((7-methoxypyrido[3,2-d]pyrimidin-4-yl)amino)phenyl)-3,6-dimethyl-3,6-dihydro-2H-1,4-thiazine 1,1-dioxide]	–
241	> 400000	–	–	COc1cnc2c(Nc3ccc(F)c(C4(C(F)F)CS(=O)(=O)C(C)(C)C(N)=N4)c3)nccc2c1 (stereo not drawn) [Example 62, N-(3-(5-amino-3-(difluoromethyl)-6,6-dimethyl-1,1-dioxido-3,6-dihydro-2H-1,4-thiazin-3-yl)-4-fluorophenyl)-3-methoxy-1,7-naphthyridin-8-amine]	IC50 ([1]; Aβ40, 24 h incubation): 1820 nM
2.23	172000	–	–	CC1(C)C(N)=N[C@](CF)(c2cc(NC(=O)c3cnc(C(F)F)cn3)ccc2F)CS1(=O)=O [Example 376, N-(3-((3S)-5-amino-3-(fluoromethyl)-6,6-dimethyl-1,1-dioxido-3,6-dihydro-2H-1,4-thiazin-3-yl)-4-fluorophenyl)-5-(difluoromethyl)-2-pyrazinecarboxamide]	IC50 [1]: 61.5 nM
4.57	150000	–	–	Cc1cc(C(F)F)cnc1C(=O)Nc1ccc(F)c([C@]2(C)CS(=O)(=O)C3(CCC3)C(N)=N2)c1 [Example 123, (R)—N-(3-(9-amino-7-methyl-5,5-dioxido-5-thia-8-azaspiro[3.5]non-8-en-7-yl)-4-fluorophenyl)-5-(difluoromethyl)-3-methylpicolinamide]	IC50 [1]: 6.3 nM
–	> 400000	–	1.7	CC1(C)C(N)=N[C@](CF)(c2cc(NC(=O)c3ccc(F)cn3)ccc2F)CS1(=O)=O [Example 363, N-(3-((3S)-5-amino-3-(fluoromethyl)-6,6-dimethyl-1,1-dioxido-3,6-dihydro-2H-1,4-thiazin-3-yl)-4-fluorophenyl)-5-fluoro-2-pyridinecarboxamide]	IC50 ([1]; average IC50, HEK cell assay): 45.6 nM
–	> 400000	–	0.74	C[C@]1(F)C(N)=N[C@](C)(c2cc(NC(=O)c3ncc(C#N)cc3Cl)ccc2F)CS1(=O)=O [Example 327, N-(3-((3R,6R)-5-amino-6-fluoro-3,6-dimethyl-1,1-dioxido-3,6-dihydro-2H-1,4-thiazin-3-yl)-4-fluorophenyl)-3-chloro-5-cyano-2-pyridinecarboxamide]	IC50 ([1]; average IC50, HEK cell assay): 20.4 nM
–	> 44400	–	–	C[C@]1(F)C(N)=N[C@](C)(c2cc(Nc3ncc(F)c4cc(C#N)cnc34)ccc2F)CS1(=O)=O [Example 179, 8-((3-((3R,6R)-5-Amino-6-fluoro-3,6-dimethyl-1,1-dioxido-3,6-dihydro-2H-1,4-thiazin-3-yl)-4-fluorophenyl)amino)-5-fluoro-1,7-naphthyridine-3-carbonitrile]	IC50 ([1]; average IC50, HEK cells): 157 nM; IC50 ([2]; average IC50): 0.8 nM
–	68200	30.8	3.26	CC1(C)C(N)=N[C@](CF)(c2cc(Nc3ncnc4cc(Cl)cnc34)ccc2F)CS1(=O)=O [Example 235, N-(3-((3S)-5-amino-3-(fluoromethyl)-6,6-dimethyl-1,1-dioxido-3,6-dihydro-2H-1,4-thiazin-3-yl)-4-fluorophenyl)-7-chloropyrido[3,2-d]pyrimidin-4-amine]	–
2	183000	–	–	CC1(C)C(N)=N[C@](C)(c2cc(NC(=O)c3ccc(Cl)cn3)cnc2F)CS1(=O)=O [Example 398, N-(5-((3R)-5-amino-3,6,6-trimethyl-1,1-dioxido-3,6-dihydro-2H-1,4-thiazin-3-yl)-6-fluoro-3-pyridinyl)-5-chloro-2-pyridinecarboxamide]	IC50 [1]: 11.4 nM
13.8	45600	–	–	CC1(C)C(N)=N[C@@](C)(c2cc(Nc3noc4cc(Cl)cnc34)ccc2F)CS1(=O)=O [Example 78, (S)-5-Amino-3-(5-((6-chloroisoxazolo[4,5-b]pyridin-3-yl)amino)-2-fluorophenyl)-3,6,6-trimethyl-3,6-dihydro-2H-1,4-thiazine 1,1-dioxide]	IC50 ([1]; Aβ40, 24 h incubation): 94.4 nM
–	387000	–	0.72	Cc1cc(OC(F)F)cnc1C(=O)Nc1ccc(F)c([C@]2(C)CS(=O)(=O)[C@@](C)(F)C(N)=N2)c1 [Example 321, N-(3-((3R,6R)-5-amino-6-fluoro-3,6-dimethyl-1,1-dioxido-3,6-dihydro-2H-1,4-thiazin-3-yl)-4-fluorophenyl)-5-(difluoromethoxy)-3-methyl-2-pyridinecarboxamide]	IC50 ([1]; average IC50, HEK cell assay): 44.9 nM
13.6	160000	–	–	COc1cnc2c(Nc3ccc(F)c([C@]4(C)CS(=O)(=O)C5(CC5)C(N)=N4)c3)nccc2c1 [Example 86, (R)-8-Amino-6-(2-fluoro-5-((3-methoxy-1,7-naphthyridin-8-yl)amino)phenyl)-6-methyl-4-thia-7-azaspiro[2.5]oct-7-ene 4,4-dioxide]	IC50 ([1]; Aβ40, 24 h incubation): 8.2 nM
–	390000	23.7	4.15	COc1cnc2c(Nc3ccc(F)c([C@]4(CF)CS(=O)(=O)C5(CCC5)C(N)=N4)c3)nccc2c1 [Example 239, N-(3-((7S)-9-amino-7-(fluoromethyl)-5,5-dioxido-5-thia-8-azaspiro[3.5]non-8-en-7-yl)-4-fluorophenyl)-3-methoxy-1,7-naphthyridin-8-amine]	–
3200	33900	–	–	CC1(C)C(N)=N[C@](C)(c2cc(Nc3ccc4c(c3)OC(F)(F)O4)cnc2F)CS1(=O)=O [Example 414, (5R)-5-(5-((2,2-difluoro-1,3-benzodioxol-5-yl)amino)-2-fluoro-3-pyridinyl)-2,2,5-trimethyl-5,6-dihydro-2H-1,4-thiazin-3-amine 1,1-dioxide]	IC50 [1]: 2530 nM
–	31200	2390	6060	C[C@@]1(c2cccc(Br)c2)CS(=O)(=O)C2(CCC2)C(N)=N1 [Example 154, (R)-9-amino-7-(3-bromophenyl)-7-methyl-5-thia-8-azaspiro[3.5]non-8-ene 5,5-dioxide]	–
23.4	283000	–	–	COc1cnc2c(Nc3ccc(F)c([C@]4(C)CS(=O)(=O)C5(CCCC5)C(N)=N4)c3)nccc2c1 [Example 84, (R)-10-Amino-8-(2-fluoro-5-((3-methoxy-1,7-naphthyridin-8-yl)amino)phenyl)-8-methyl-6-thia-9-azaspiro[4.5]dec-9-ene 6,6-dioxide]	IC50 ([1]; Aβ40, 24 h incubation): 57.5 nM
–	650000	–	–	COc1cnc(C(=O)Nc2ccc(F)c([C@]3(C)CS(=O)(=O)[C@](C)(F)C(N)=N3)c2)cn1 [Example 176]	IC50 ([1]; average IC50, HEK cells): 254 nM; IC50 ([2]; average IC50): 2.8 nM
–	374000	91.8	37.5	CC1(C)C(N)=N[C@](C)(c2cc(Oc3cc(Br)ccn3)ccc2F)CS1(=O)=O [Example 285, (5R)-5-(5-((4-bromo-2-pyridinyl)oxy)-2-fluorophenyl)-2,2,5-trimethyl-5,6-dihydro-2H-1,4-thiazin-3-amine 1,1-dioxide]	–

SMILES	IC50 [2] [nM]	IC50 (Cathepsin D (Cat D)) [nM]	IC50 ([1]; average IC50, cell assay) [nM]	IC50 ([2]; average IC50, enzyme assay) [nM]	also measured
COc1ccc(C(=O)Nc2ccc(F)c([C@]3(C)CS(=O)(=O)C(C)(C)C(N)=N3)c2)nc1 [Example 22, N-(3-((3R)-5-amino-3,6,6-trimethyl-1,1-dioxido-3,6-dihydro-2H-1,4-thiazin-3-yl)-4-fluorophenyl)-5-methoxy-2-pyridinecarboxamide]	1.5	> 400000	–	–	IC50 ([1]; Aβ40, 24 h incubation): 3.1 nM
CC1(C)C(N)=N[C@](CF)(c2cc(NC(=O)c3cnc(OCC4CC4)cn3)ccc2F)CS1(=O)=O [Example 156, (S)—N-(3-(5-amino-3-(fluoromethyl)-6,6-dimethyl-1,1-dioxido-3,6-dihydro-2H-1,4-thiazin-3-yl)-4-fluorophenyl)-5-(cyclopropylmethoxy)pyrazine-2-carboxamide]	–	835000	4.9	0.5	–
C[C@@]1(c2cc(Br)ncc2F)CS(=O)(=O)C2(CCC2)C(N)=N1 [Example 147, (R)-9-amino-7-(2-bromo-5-fluoropyridin-4-yl)-7-methyl-5-thia-8-azaspiro[3.5]non-8-ene 5,5-dioxide]	–	43500	> 15600	17000	–
CC1(C)C(N)=N[C@](C)(c2cc(Nc3nccc4cc(OCC(F)F)cnc34)ccc2F)CS1(=O)=O [Example 161, (R)-5-amino-3-(5-((3-(2,2-difluoroethoxy)-1,7-naphthyridin-8-yl)amino)-2-fluorophenyl)-3,6,6-trimethyl-3,6-dihydro-2H-1,4-thiazine 1,1-dioxide]	–	447000	17.8	14.3	–
